Experimental data: EP1285920A1, “C10 Ester sustituted taxanes as antitumor agents” (Florida State University Research Foundation, Inc., priority 2001, dated 2003)
Where two headings read alike, the source gives them in different places.

Tests used:
[1] = test system: Panc-1 pancreatic carcinoma; test: In vivo evaluation against Panc-1 human pancreatic carcinoma (Example 17); settings: for MDS: i.v. qd x 1 (compounds estimated MTD; Taxol 36 mg/kg split), days until tumor 1.5 g, ended Day 60; for MDS (n): mean days of survival until neoplasm reached 1.5 g, terminated Day 60; for Mean Score: tumor scoring system
Method: The dosing volume was 0.3 ml per 20 g mouse.
Female NCr-nude mice were implanted subcutaneously with 1 mm^3 Panc-1 pancreatic carcinoma fragments in the flank and sorted into treatment groups of six mice each. […] Dosing was initiated on Day 1. The antitumor compounds were given i.v. at an estimated maximum tolerated dose (MTD) appropriate for each agent on a qd x 1 schedule (single administration of compound). […] The vehicle was administered i.v. to control mice in Group 1 on the qd x 1 schedule. The study was terminated on Day 60.
The mean days of survival is the number of days after which a neoplasm reached a size of 1.5 g and the animal was euthanized. A complete response is obtained if the tumor shrinks to a size smaller than its size on Day 1 of the study.

HCT116 carcinoma = settings: for Survivors / Toxic Deaths: number of 5 mice, i.v. qd x 1 at MTD, Day 60; for Survivors: doses as in E3; for Toxic Deaths: mg/kg: Taxol 36 (split doses), 0503 72.6, 0536 49, 0663 159, 0670 123, 0687 159, 0706 108, 0908 159, 0947 76.9, 0951 72.6, 0983 72.6, 0999 49, 1003 49, 1011 108
Method: Antitumor compounds were formulated for an i.v. dosing regime and were prepared in the following vehicle: 5% ethanol, 5% Cremophor and 90% isotonic saline.
(§1) The antitumor compounds were given intravenously in a single maximum tolerated dose (MTD) appropriate for each compound. […] The MTDs for the antitumor compounds were calculated from earlier single dose data for mice receiving i.v. administration of these compounds. All vehicle control animals in the split dosing regimes were dosed twice intravenously with half of the total volume being given separated by one hour. The study was terminated on Day 60.
A complete response is obtained if the tumor is not palpable at the end of the study.

HCT116 = test: In Vitro cytotoxicity measured by the cell colony formation assay; format: cell-based, human; settings: Homo sapiens, HCT-116; read-out: IN VITRO ID 50 HCT116
Procedure, shortened: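 Four hundred cells per dish in McCoy's 5a medium with 10% FBS were allowed to attach for 5 h at 37 °C. They were then exposed to compound for 72 h at 37 °C, added as a 10× stock made fresh in medium. After HBSS rinsing and refeeding, colonies were counted after 7 days.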

A375 melanoma = test system: A375 melanoma
Method: Dosing was initiated on Day 1. […] Taxotere was given i.v. on a qd x 1 schedule at a dose of 70 mg/kg. […] The study was terminated on Day 60. Treatment groups are detailed in Table 9.

MX-1 carcinoma = settings: for Survivors / Toxic Deaths: number of 6 mice, i.v. qd x 1 at MTD, Day 60; for Survivors: doses as in E17; for Toxic Deaths: mg/kg: Taxol 36 (split dose), 0503 72.6, 0536 49, 0663 159, 0670 123, 0687 159, 0706 108, 0908 159, 0947 76.9, 0951 72.6, 0983 67.4, 0999 49, 1003 49, 1011 108
Method: Thirteen antitumor compounds were formulated for an i.v. dosing regime (single i.v. bolus, qd x 1 schedule) prepared in the following vehicle: 5% ethanol, 5% Cremophor and 90% isotonic saline.
as §1, with “half” for “half of”
A complete response is obtained if the tumor is not palpable at the end of the study. […]

DU145 prostate carcinoma = settings: for total response rate: iv; for Toxic Deaths: i.v. qd x 1 at estimated MTD (Taxol 24 mg/kg as two split doses); for complete responses: five mice per group
Text: Dosing was initiated on Day 1. […] Treatment groups are detailed in Table 5.

VM46 colon carcinoma = settings: for response rate: i.v. qd x 1 at estimated MTD; for Complete Response / Partial Response / Stable Disease / Survivors: Day 64
Method: Dosing was initiated on Day 1. […] Taxotere was given i.v. at a dose of 70 mg/kg on a qd x 1 schedule.

A2780 ovarian carcinoma = test system: A2780 ovarian carcinoma
Method: Dosing was initiated on Day 1. […] Taxotere was given i.v. on a qd x 1 schedule at a dose of 70 mg/kg. […] The study was terminated on Day 60. Treatment groups are detailed in Table 7.

[2] = Panc-1 (Example 17), i.v. qd x 1, six mice per group
[3] = i.v. qd x 1, mg/kg: Taxol 36, 0499 77, 0503 72.6, 0670 123.1, 0706 107.6, 0838 72.6, 0854 76.9, 6 mice/group
[4] = number of mice, i.v. qd x 1, mg/kg: Taxol 36, 0499 77, 0503 72.6, 0670 123.1, 0706 107.6, 0838 72.6, 0854 76.9, 6 mice/group
[5] = number of mice, i.v. qd x 1, mg/kg: Taxol 36, 0499 77, 0503 72.6, 0670 123.1, 0706 107.6, 0838 72.6, 0854 76.9, 6 mice/group, Day 60
[6] = number of mice, i.v. qd x 1 at estimated MTD (Taxol 24 mg/kg, Taxotere 70 mg/kg), 6 mice/group (Taxotere 7)
[7] = number of mice, i.v. qd x 1 at estimated MTD (Taxol 24 mg/kg, Taxotere 70 mg/kg), 6 mice/group (Taxotere 7), Day 60
[8] = number of 5 mice, i.v. qd x 1 at estimated MTD (Taxol 24 mg/kg split), Day 91
[9] = number of mice, i.v. qd x 1, mg/kg: Taxol 24, 0499 77, 0503 72.6, 0670 123.1, 0706 107.6, 0838 72.6, 0854 46.6, 0983 67.4, Taxotere 70, 6 mice/group

CCC(=O)O[C@H]1C(=O)[C@@]2(C)[C@H]([C@H](OC(=O)c3ccccc3)[C@]3(O)C[C@H](OC(=O)[C@H](O)[C@@H](NC(=O)c4ccccc4)c4ccoc4)C(C)=C1C3(C)C)[C@]1(OC(C)=O)CO[C@@H]1C[C@@H]2O [Compound 0670]
MDS ([1]; Panc-1 (Example 17)): 47 to 56 days
Toxic Deaths [1, 2]: One
MDS (n) [1, 3]: 51.2 ± 5.9 (2) days
Toxic Deaths [1, 4]: 1
Complete Response [1, 5]: 1
Partial Response [1, 5]: 0
Stable Disease [1, 5]: 2
Mean Score [1, 3]: 4.2 ± 1.7
Partial Response (HCT116 carcinoma; iv): 1
Complete Response (HCT116 carcinoma; iv, 1440 h): 2
MDS (n) (HCT116 carcinoma; iv, 1440 h): 29.8 ± 0.7 (2) days
Mean Score (HCT116 carcinoma; iv, 1440 h): 6.6 ± 1.9
Stable Disease (HCT116 carcinoma; iv, 1440 h): 0
Survivors (HCT116 carcinoma): 3
Toxic Deaths (HCT116 carcinoma): 0
IC50 (HCT116): < 1 nM
Toxic Deaths (A375 melanoma; [6]): 0
Survivors (A375 melanoma; [7]): 0
Partial Response (MX-1 carcinoma; iv): 1
Complete Response (MX-1 carcinoma; iv, 1440 h): 1
MDS (n) (MX-1 carcinoma; iv, 1440 h): 28.5 ± 6.1 (4) days
Mean Score (MX-1 carcinoma; iv, 1440 h): 4.3 ± 1.6
Stable Disease (MX-1 carcinoma; iv, 1440 h): 0
Survivors (MX-1 carcinoma): 2
Toxic Deaths (MX-1 carcinoma): 0
total response rate (DU145 prostate carcinoma): 20-50%
Toxic Deaths (DU145 prostate carcinoma; number of 5 mice, Day 91): 0
Survivors (DU145 prostate carcinoma; [8]): 4
response rate (VM46 colon carcinoma; VM46): 16.7-40%
Mean Score (VM46 colon carcinoma; iv): 2.8 ± 1.2
MDS (n) (VM46 colon carcinoma; iv, 1536 h): 40.1 ± 5.8 (5) days
Toxic Deaths (VM46 colon carcinoma; [9]): 0
Complete Response (VM46 colon carcinoma; [9]): 0
Partial Response (VM46 colon carcinoma; [9]): 1
Stable Disease (VM46 colon carcinoma; [9]): 0
Survivors (VM46 colon carcinoma; [9]): 1

CCC(=O)O[C@H]1C(=O)[C@@]2(C)[C@H]([C@H](OC(=O)c3ccccc3)[C@]3(O)C[C@H](OC(=O)[C@H](O)[C@@H](NC(=O)c4ccccc4)C4CC4)C(C)=C1C3(C)C)[C@]1(OC(C)=O)CO[C@@H]1C[C@@H]2O [Compound 0706]
Mean Score (A2780 ovarian carcinoma; iv, 72.6 mg/kg): 3 ± 0
Complete Response (A2780 ovarian carcinoma; iv, 72.6 mg/kg, 1440 h): 0
MDS (n) (A2780 ovarian carcinoma; iv, 72.6 mg/kg, 1440 h): 37.0 ± 4.1 (5) days
Partial Respons (A2780 ovarian carcinoma; iv, 72.6 mg/kg, 1440 h): 0
Stable Disease (A2780 ovarian carcinoma; iv, 72.6 mg/kg, 1440 h): 0
Toxic Deaths (A2780 ovarian carcinoma; number of mice, i.v. qd x 1 at estimated MTD (Taxol 24 mg/kg, Taxotere 70 mg/kg, 0983 72.6 mg/kg), 5 mice/group (Taxotere 6)): 0
Survivors (A2780 ovarian carcinoma; number of mice, i.v. qd x 1 at estimated MTD (Taxol 24 mg/kg, Taxotere 70 mg/kg, 0983 72.6 mg/kg), 5 mice/group (Taxotere 6), Day 60): 0
MDS ([1]; Panc-1 (Example 17)): 47 to 56 days
Toxic Deaths [1, 4]: 0
Complete Response [1, 5]: 0
Partial Response [1, 5]: 3
Stable Disease [1, 5]: 2
Mean Score [1, 3]: 6.6 ± 1
Partial Response (HCT116 carcinoma; iv): 4
Complete Response (HCT116 carcinoma; iv, 1440 h): 1
Mean Score (HCT116 carcinoma; iv, 1440 h): 9.2 ± 0.2
Stable Disease (HCT116 carcinoma; iv, 1440 h): 0
Survivors (HCT116 carcinoma): 5
Toxic Deaths (HCT116 carcinoma): 0
IC50 (HCT116): < 1 nM
Toxic Deaths (A375 melanoma; [6]): 1
Survivors (A375 melanoma; [7]): 0
Partial Response (MX-1 carcinoma; iv): 0
Complete Response (MX-1 carcinoma; iv, 1440 h): 5
Mean Score (MX-1 carcinoma; iv, 1440 h): 8.3 ± 1.7
Stable Disease (MX-1 carcinoma; iv, 1440 h): 0
Survivors (MX-1 carcinoma): 5
Toxic Deaths (MX-1 carcinoma): 1
complete responses (DU145 prostate carcinoma; DU145, i.v. qd x 1): 2
total response rate (DU145 prostate carcinoma): 20-50%
Toxic Deaths (DU145 prostate carcinoma; number of 5 mice, Day 91): 0
Survivors (DU145 prostate carcinoma; [8]): 3
response rate (VM46 colon carcinoma; VM46): 56%
MDS (n) (VM46 colon carcinoma; mean days of survival until neoplasm reached 1.5 g, i.v. qd x 1, mg/kg: Taxol 24, 0499 77, 0503 72.6, 0670 123.1, 0706 107.6, 0838 72.6, 0854 46.6, 0983 67.4, Taxotere 70, 6 mice/group, terminated Day 64): 48.6 ± 0.9 (3) days
Toxic Deaths (VM46 colon carcinoma; [9]): 0
Complete Response (VM46 colon carcinoma; [9]): 1
Partial Response (VM46 colon carcinoma; [9]): 2
Stable Disease (VM46 colon carcinoma; [9]): 0
Survivors (VM46 colon carcinoma; [9]): 3
Mean Score (VM46 colon carcinoma; tumor scoring system, i.v. qd x 1, mg/kg: Taxol 24, 0499 77, 0503 72.6, 0670 123.1, 0706 107.6, 0838 72.6, 0854 46.6, 0983 67.4, Taxotere 70, 6 mice/group): 6.2 ± 1.4

CC(=O)O[C@@]12CO[C@@H]1C[C@H](O)[C@@]1(C)C(=O)[C@H](OC(=O)C3CC3)C3=C(C)[C@@H](OC(=O)[C@H](O)[C@H](C=C(C)C)NC(=O)OC(C)(C)C)C[C@@](O)([C@@H](OC(=O)c4ccccc4)[C@H]21)C3(C)C [Compound 0838]
MDS ([1]; Panc-1 (Example 17)): 47 to 56 days
Toxic Deaths [1, 2]: One
MDS (n) [1, 3]: 54.2 ± 0.9 (2) days
Toxic Deaths [1, 4]: 1
Complete Response [1, 5]: 0
Partial Response [1, 5]: 2
Stable Disease [1, 5]: 3
Survivors [1, 5]: 3
Mean Score [1, 3]: 3.6 ± 1.1
survival extension compared to Group 1 controls (A375 melanoma; A375, i.v. qd x 1): 133%
MDS (n) (A375 melanoma; mean days of survival until neoplasm reached 2.0 g, i.v. qd x 1 at estimated MTD (Taxol 24 mg/kg, Taxotere 70 mg/kg), 6 mice/group (Taxotere 7), terminated Day 60): 33.5 ± 3.4 (5) days
Toxic Deaths (A375 melanoma; [6]): 0
Complete Response (A375 melanoma; [7]): 1
Partial Response (A375 melanoma; [7]): 0
Stable Disease (A375 melanoma; [7]): 0
Survivors (A375 melanoma; [7]): 1
Mean Score (A375 melanoma; tumor scoring system, i.v. qd x 1 at estimated MTD (Taxol 24 mg/kg, Taxotere 70 mg/kg), 6 mice/group (Taxotere 7)): 3.8 ± 1.2
antitumor activity (DU145 prostate carcinoma; DU145, i.v. qd x 1): active
complete responses (DU145 prostate carcinoma; DU145, i.v. qd x 1): 2
Mean Score (DU145 prostate carcinoma; i.v. qd x 1 at estimated MTD (Taxol 24 mg/kg split), 5 mice/group, Day 91): 7 ± 1.5
Stable Disease (DU145 prostate carcinoma; number of 5 mice, tumor did not reach 1.5 g by end of study, i.v. qd x 1 at estimated MTD (Taxol 24 mg/kg split), Day 91): 1
Toxic Deaths (DU145 prostate carcinoma; number of 5 mice, Day 91): 0
Complete Response (DU145 prostate carcinoma; [8]): 2
Partial Response (DU145 prostate carcinoma; [8]): 1
Survivors (DU145 prostate carcinoma; [8]): 4
Toxic Deaths (VM46 colon carcinoma; VM46, i.v. qd x 1, six mice per group): no toxic deaths
Toxic Deaths (VM46 colon carcinoma; [9]): 0
Complete Response (VM46 colon carcinoma; [9]): 0
Partial Response (VM46 colon carcinoma; [9]): 1
Stable Disease (VM46 colon carcinoma; [9]): 3
Survivors (VM46 colon carcinoma; [9]): 4
